Source: US20160158252A1, “PHARMACEUTICAL COMPOSITION AND USE OF DIETHYL (2-CYANOETHYL)PHOSPHONATE” (Olatec Therapeutics LLC, priority 2013, published 2016)
Read-outs that look alike come from different tables or passages of the source.

Experiments:
[1] = tested on: arachidonic acid-induced ear swelling; experiment: Topical arachidonic acid-induced ear swelling model in mice (topical administration); type: in vivo, mice (male ICR); conditions: 90 minutes after arachidonic acid
Protocol: The test compound, indomethacin (positive control), and vehicle (acetone:ethanol/1:1) were evaluated for anti-inflammatory activity in a topical arachidonic acid-induced ear swelling model in mice.
Male ICR mice weighing 22±2 g were used and randomly divided; the test compound and vehicle control had 10 mice, and indomethacin had 5 mice. Arachidonic Acid (0.5 mg in 20 μl of acetone:ethanol/1:1) was applied topically to the anterior and posterior surfaces of the right ear of each mice. Test substances (in vehicle) and vehicle, as listed in Table 3 were similarly applied 30 min before and 15 min after arachidonic acid application. The thickness of the right ear and the left ear was measured and the difference calculated as an indication of the inflammation in the right ear. Ear swelling was measured by a Dyer model micrometer gauge at 60 and 90 minutes after arachidonic acid application as an index of inflammation. Percent inhibition was calculated according to the formula: Ic−It/Ic×100, where Ic and It refers to increase of ear thickness (mm) in control and treated mice, respectively. An ANOVA was done, and if p<0.05, a Dunnett's t test was employed to calculate significant difference between vehicle control and test compound treated groups. A pairwise Student's t test was used to calculate differences between the indomethacin group and the control group. Significance is set at P<0.05 level.

[2] = tested on: IL-6, TNFα, IFNγ, MIP-2 and RANTES; experiment: Pro-inflammatory cytokine release in rat challenged in vivo with lipopolysaccharide; conditions: given orally to rat, LPS challenge in vivo
[3] = tested on: formalin-induced paw licking; conditions: for Licks per min (Between 0-10 min) / Licks per min (Between 10-40 min): 375 mM topical BID; for Licks per min (Between 0-10 min): early phase, vehicle 4.4; for Licks per min (Between 10-40 min): late phase, vehicle 1.7
Protocol: The test compound diethyl (2-cyanoethyl) phosphonate (375 mM in vehicle, n=16) and vehicle control (acetone:ethanol 1:1, n=16) were administered topically by submerging the mouse left hind paw in the respective solution for about 30 seconds. The paw was then withdrawn and wiped with tissue to avoid excess dermal drying.
Positive control morphine was administered by subcutaneous injection at 4 mg/kg with a volume of 4 mL/kg to mice (n=16).
Morphine was subcutaneously administered once 15 minutes before formalin injection. The test compounds and vehicle control were topically administered twice (BID), at 90 and 15 minutes before formalin injection.
Following formalin injection, animals were placed in individual cages, and manually observed for 60 minutes. The licking events were recorded in five minute intervals continuously for a total of 40 minutes.
The number of licking events per minute was calculated between 0-10 minutes and 10-40 minutes for vehicle, positive control, and test compound. A two-sample t-test was done to compare the vehicle group with the test compound group. Significance is set at P<0.05 level. The same statistics were done comparing the vehicle group with the positive control group.

[4] = tested on: arachidonic acid-induced ear swelling; experiment: Arachidonic acid-induced ear swelling in mice (intraperitoneal administration); type: in vivo; conditions: measured at 90 minutes
Protocol: The protocols of this experiment were similar to Example 3, except the following differences. Test substance diethyl (2-cyanoethyl) phosphonate was dissolved in PBS to generate 1, 3 and 10 mg/mL testing solutions. Vehicle (PBS) at 10 mL/kg and diethyl (2-cyanoethyl) phosphonate at 10 mL/kg (10, 30, and 100 mg/kg) were administered intraperitoneally at 1 hour, and again 15 minutes before arachidonic acid (0.5 mg/ear) challenge. The positive control dexamethasone was administered orally 3 hours before arachidonic acid.
An ANOVA was done, and if p<0.05, a Dunnett's t test was employed to calculate significant difference between vehicle control and treated groups. Significance is set at P<0.05 level.
An ANOVA was done, and if p<0.05, a Dunnett's t test was employed to calculate significant difference between vehicle control and test compound treated groups. A pairwise Student's t test was used to calculate differences between the dexamethasone group and the control group. Significance is set at P<0.05 level.

[5] = tested on: tail flick reaction to heat (49° C. water bath); experiment: Tail flick test in mice (oral administration); type: in vivo
Protocol: Tail flick test is a test of the pain response in animals. Tail flick test is used in basic pain research and to measure the effectiveness of analgesics, by observing the tail flick reaction to heat in an animal. This test assesses the nociceptive response to a local pain stimulus, and the ability of a drug to inhibit this response.
Vehicle control (water) and test compound diethyl (2-cyanoethyl) phosphonate in water were administered by oral gavage to mice with a volume of 10 mL/kg, twice, at 60 and 15 minutes before the first tail flick measurement. The test compound was administered at a dosage of 10, 30, or 100 mg/kg in water. The positive control compound morphine was administered by subcutaneous injection at 8 mg/kg with a volume of 8 mL/kg, at 15 minutes before the first tail flick measurement. Each group had 10 mice.
The response of mice to heat stimulus was evaluated by measuring the time of tail-flick or tail-flick latency from 49° C. water bath. Briefly, the animal was placed in a restrainer with its tail hanging down. Approximately 2 inches of the tail was immersed in a beaker of water at 38±1° C. for about 30 seconds, and this was done twice to acclimate the animal to the procedure.
Subsequently, approximately 2 inches of the tail was immersed in a beaker of water at 49±1° C., at which point a timer was started.
Tail flick measurements were made 60, 80, 100, and 120 minutes post administration of the first dosage of test compound. An ANOVA was done, and if p<0.05, a Dunnett's t test was employed to calculate significant difference between vehicle control and test compound treated groups. A pairwise Student's t test was used to calculate differences between the morphine group and the control group. […] Analysis with p-values <0.05 is considered significant.

[6] = tested on: formalin-induced paw licking; experiment: Formalin test in mice (oral administration); type: in vivo, mice (male CD-1); conditions: for Licks per min (Between 0-10 min): early phase, vehicle 3.3; for Licks per min (Between 10-40 min): late phase, vehicle 1.4
Protocol: Formalin test is a model of continuous pain resulting from formalin-induced tissue injury. Nociceptive and inflammatory pain was induced by injection of a dilute formalin solution into the paw, resulting in nocifensive behavior including paw flinching. The formalin model encompasses inflammatory, neurogenic, and central mechanism of pain. The early phase of pain (from 0 to about 10 minutes) is due to nociceptive mechanism and the late phase of pain (from 10-40 minutes) is due to a combination of inflammatory pain and nociceptive mechanism. Pain behavior is assessed using manual paw licking measurements. The endpoints of the study are the number of paw licking events. (Hunskaar et al., Pain, 30:103-114, 1987; Li et al., Molecular Pain, 6:11, 2010)
Male CD-1 mice, about 34 g, were used in the study. Mice had free access to food and water, were maintained on a 12 hour:12 hour light/dark schedule for the entire duration of the study, and housed in soft bedding five per cage.
Immediately prior to testing (at time 0), mice were restrained in a cloth and injected with 20 μL of a 5% formalin solution, subcutaneously into the dorsal surface of the left hind paw. Vehicle control (n=10, water) and test compound diethyl (2-cyanoethyl) phosphonate (n=9, in water) were administered by oral gavage with a volume of 10 mL/kg to mice. The amounts of test compound were 10, 30, or 100 mg/kg per dose.
Positive control morphine was administered by subcutaneous injection at 4 mg/kg with a volume of 4 mL/kg to mice (n=10). […] The purpose of morphine is not to serve as a comparison with the test compound.
Morphine was subcutaneously administered once 15 minutes before formalin injection. The test compounds and vehicle control were orally administered twice (BID), at 60 and 15 minutes before formalin injection at time zero.
Following formalin injection, animals were placed in individual cages, and manually observed for 60 minutes. The licking events were recorded in five minute intervals continuously for a total of 60 minutes.
The number of licking events per minute was calculated between 0-10 minutes and 10-40 minutes for vehicle, positive control, and test compound. An ANOVA was done, and if p<0.05, a Dunnett's t test was employed to calculate significant difference between vehicle control and test compound treated groups. A pairwise Student's t test was used to calculate differences between the morphine group and the control group. Significance is set at P<0.05 level.

[7] = 100 mg/kg oral BID, listed as test compound

COc1ccc2c(c1)c(CC(=O)O)c(C)n2C(=O)c1ccc(Cl)cc1 [Indomethacin, indomethacin, reference compound]
% Inhibition of ear swelling ([1]; 14 mM, 20 μL (0.1 mg/ear) applied twice topically): 58%

CCOP(=O)(CCC#N)OCC [Diethyl (2-cyanoethyl) phosphonate, Diethyl (2-cyanoethyl)phosphonate]
Pro-inflammatory cytokine release (IL-6, TNFα, IFNγ, MIP-2 and RANTES) [2]: effective in inhibiting pro-inflammatory cytokine release | % Inhibition of ear swelling ([1]; 375 mM in acetone:ethanol (1:1), 20 μL (1.4 mg/ear) applied twice topically): 55% | % Inhibition of ear swelling ([1]; 375 mM in acetone:ethanol (1:1), 20 μL (1.4 mg/ear) applied twice topically, listed as active compound): anti-inflammatory | % Inhibition of ear swelling ([1]; 375 mM in acetone:ethanol (1:1), 20 μL (1.4 mg/ear) applied twice topically, listed as tested compound): 55% | Licks per min (Between 0-10 min) [3]: 4.0 licks per min | Licks per min (Between 0-10 min) ([3]; listed as test compound): no statistically significant difference | Licks per min (Between 10-40 min) [3]: 1.1 licks per min | Licks per min (Between 10-40 min) ([3]; listed as test compound): statistically significant (p<0.05) reduction | Paw licking events after topical application alone without injection of formalin ([3]; 375 mM topical, no formalin): negligible number of paw licking events | % Inhibition of ear swelling ([4]; 10 mg/kg intraperitoneally, twice): −8% | % Inhibition of ear swelling ([4]; 30 mg/kg intraperitoneally, twice): 0% | % Inhibition of ear swelling ([4]; 100 mg/kg intraperitoneally, twice): 34% | % Inhibition of ear swelling ([4]; 100 mg/kg intraperitoneally, twice, listed as tested compound): 37% | Tail flick latency vs vehicle-treated mice ([5]; 30 mg/kg oral, twice, 60, 80, 100, 120 minutes): statistically significant tail flick latency at 60 and 80 minutes | Tail flick latency vs vehicle-treated mice ([5]; 100 mg/kg oral, twice, 60, 80, 100, 120 minutes): statistically significant tail flick latency at 60 and 100 minutes | Licking events, difference from control ([6]; 10 mg/kg oral BID): did not show a statically significant difference from control | Licking events, difference from control ([6]; 30 mg/kg oral BID): did not show a statically significant difference from control | Efficacy after 40 minutes (licking events) ([6]; 100 mg/kg oral BID): did not last after 40 minutes | Licks per min (Between 0-10 min) ([6]; 100 mg/kg oral BID): 3.1 licks per min | Licks per min (Between 0-10 min) [6, 7]: no statistically significant difference | Licks per min (Between 10-40 min) ([6]; 100 mg/kg oral BID): 0.59 licks per min | Licks per min (Between 10-40 min) [6, 7]: statistically significant (p<0.05) reduction

C[C@@H]1C[C@H]2[C@@H]3CCC4=CC(=O)C=C[C@]4(C)[C@@]3(F)[C@@H](O)C[C@]2(C)[C@@]1(O)C(=O)CO [Dexamethasone, dexamethasone, reference compound]
% Inhibition of ear swelling ([4]; 0.3 mg/kg orally 3 hours before arachidonic acid): 29%

CN1CC[C@]23c4c5ccc(O)c4O[C@H]2[C@@H](O)C=C[C@H]3[C@H]1C5 [Morphine, morphine, reference compound]
Tail flick latency vs vehicle-treated mice ([5]; mouse, in vivo): statistically significant tail flick latency at all measured time points | Efficacy after 40 minutes (licking events) ([6]; mouse, in vivo): did not last after 40 minutes
